Results as given in patent US5789447A, “Nitric oxide releasing compounds as protective agents in ischemia reperfusion injury” (priority 1995, dated 1998).
Entries after “also recorded” stand apart in the source; their conditions may differ.

Experiments:
[1] = test system: Chinese hamster V79 lung fibroblasts; experiment: V79 clonogenic survival, hypoxanthine/xanthine oxidase (HX/XO) cytotoxicity
Protocol: Chinese hamster V79 lung fibroblasts were cultured in F12 medium supplemented with 10% fetal calf serum and antibiotics. Cell survival was assessed by clonogenic assay with 85-95% plating efficiency. Stock cultures of exponentially growing cells were trypsinized, rinsed, and plated (7×10^5 cells/dish) into a number of 100 cm^2 petri dishes and incubated 16 hr at 37° C. prior to experimental protocols.
It has been shown that exposure of V79 cells to hydrogen peroxide results in dose-dependent cytotoxicity (Mitchell et al., supra).
HX and XO were purchased from Boehringer Co. (Indianapolis, Ind.). Nitrite, diethylamine, sulfinamide, diethylenetriaminepentaacetic acid (DETAPAC) and N-(1-naphthyl)ethylenediaminedihydrogenchloride (NEDD) were purchased from Aldrich (Milwaukee, Wis.). Cytosine-β-D-arabinofuranoside and ferricytochrome c were purchased from Sigma (St. Louis, Mo.). DEA/NO and SPER/NO were synthesized as previously described (Maragos et al., (1991), supra).
Exponentially growing cultures of Chinese hamster V79 fibroblasts were exposed to either HX/XO (final concentration of HX was 0.5 mM; 0.08 units/ml XO were used) for various amounts of time (FIG. 1A) or to various concentrations of hydrogen peroxide for one hour (FIG. 1B). […] Additionally, 1 mM DEA/NO was added to medium in the absence of cells, incubated at 37° C. for 1 hr or 16 hrs, and then added just prior to the addition of hydrogen peroxide to evaluate the effects of DEA/NO which had released NO. After treatment, cell monolayers were rinsed twice with phosphate-buffered saline (PBS), trypsinized, counted and plated in triplicate for macroscopic colony formation. Each dose determination was plated in triplicate and experiments were repeated a minimum of two times. Plates were incubated for 7 days, after which colonies were fixed with methanol/acetic acid (3:1), stained with crystal violet, and counted. Colonies containing more than 50 cells were scored.

[2] = test system: Chinese hamster V79 lung fibroblasts; experiment: V79 clonogenic survival, hydrogen peroxide cytotoxicity; type: cell-based
From the text: Colonies containing more than 50 cells were scored.

[3] = target: T1, XO (Bos taurus, UniProt P80457); experiment: XO activity by superoxide-induced reduction of ferricytochrome c; type: biochemical
Protocol: (§1) The activity of XO was monitored in the absence and presence of 1 mM DEA/NO by two different assays. Superoxide-induced reduction of ferricytochrome c to ferrocytochrome c was monitored spectrophotometrically at 550 nm (Fridovich, Handbook of Method for Oxygen Radical Research, pages 213-215 (1985)). The reaction was carried out in a 1 ml volume in aerated phosphate buffer (pH 7.8, 50 mM) containing 50 μM DETAPAC. HX was maintained at 2.5 mM and ferricytochrome c at 20 μM. The reactions were initiated with the addition of XO (final concentration of 0.2 units/ml). The activity of XO in the absence and presence of 1 mM DEA/NO was directly monitored by measuring the production of uric acid spectrophotometrically at 305 nm for 10 min under the same conditions but in the absence of ferricytochrome c. All enzymatic assays and chemical reactions were done at 37° C.

[4] = target: T1, XO; experiment: XO activity by uric acid production at 305 nm; type: biochemical
Protocol: as §1

[5] = Chemical controls: DEA/NO or NO with hydrogen peroxide; type: physicochemical; conditions: presence of 1 mM hydrogen peroxide
Protocol: Anaerobic solutions of 1 mM hydrogen peroxide in 10 mM phosphate buffer, pH 7.4, were mixed with 1 mM NO. […] The rate of decomposition of DEA/NO was unaffected by the presence of 1 mM hydrogen peroxide; likewise, hydrogen peroxide was not consumed by DEA/NO or intermediates of the DEA/NO decomposition reaction as measured by the production of I3^- (Hochanadel, J. Phys. Chem., 56, 587-594 (1952)).

[6] = test system: ventral mesencephalic cells; experiment: [3H]dopamine uptake after hydrogen peroxide or HX/XO exposure; type: cell-based, Sprague Dawley rats
Protocol: (§2) The ventral tegmental mesencephalon was dissected from 14 day old embryos (precisely timed pregnant Sprague Dawley rats; Zivic-Miller, Allison Park, Pa.) under sterile conditions and mechanically dissociated into complete culture medium. The culture medium consisted of a 1:1 mixture of modified minimum essential medium and nutrient mixture F-12 supplemented with 6 mg/ml D-gluose, 2 mM glutamine, 0.5 U/ml penicillin G, 0.5 mg/ml streptomycin (all from Gibco, Grand Island, N.Y.) and 15% equine serum (Hyclone, Logan, Utah). Cells were plated into multiwell plates that were previously coated with poly-D-lysine (15 μg/ml) and laminin (10 μg/ml) at a density of 40,000 cells/cm^2 (Costar). The cells were maintained for 5-7 days at 37° C. in an atmosphere of 95% air and 5% CO2 saturated with H2 O. On the fifth day of culture 1 μM cytosine-β-D-arabinofuranoside was added to inhibit glial cell growth.
Uptake of dopanine by dopaminergic neurons was assayed as follows. The cells in each well were washed three times with 1 ml PBS containing 6 mg/ml glucose and thereafter Dulbecco's modified essential medium (Quality Biological, Inc., Farmingham, Mass.) containing 6 mg/ml D-glucose, 50 μM ascorbic acid, and 5×10^-8 M [^3 H]dopamine (NEN, Boston, Mass.; specific activity of […]) was added and incubated for 15 min at 37° C. [^3 H]dopamine uptake was stopped by aspirating the incubation solution and washing the cells three times with ice-cold PBS containing 6 mg/ml D-glucose. The cells were removed by washing the wells with an equal volume of 0.2N NaOH and 0.2N HCl containing 0.02% Triton X-100. The residual intracellular radioactivity in the cells was determined by scintillation spectroscopy.
Accordingly, ventral mesencephalic cell cultures were exposed to 100 μM H2 O2 for 1 hr in the presence and absence of 100 μM DEA/NO and evaluated for their ability to take up dopamine.
In a separate study, cells were cultured for 7 days and then exposed to 50 or 100 μM hydrogen peroxide for 60 min or to 0.04 units/ml HX/XO for 5 or 10 min in the absence or presence of 100 μM DEA/NO. The cells were washed with PBS containing 6 g/l D-glucose, culture medium was added, and the cells were incubated for 18 hr. The ability of the cells (6 wells of 450,000 cells/well per group) to take up ^3 [H]-dopamine was measured. These cells were exposed to ten times less hydrogen peroxide or HX/XO than the V79 cells described above.

[7] = test system: mesencephalic neurons; experiment: Morphology of mesencephalic neurons (neurites and somas); type: cell-based, Sprague Dawley rats
Protocol: as §2
When cells were exposed to hydrogen peroxide for 1 hr, varicosities formed in the neurites and somas swelled. Exposure to HX/XO for as short as 5 min elicited similar morphological changes in mesencephalic neurons.

[8] = test system: neuronal cell death; conditions: Lafon-Cazal et al.; cited from earlier work
[9] = test system: NMDA receptor; conditions: U.S. Pat. No. 5,234,956; cited from earlier work
[10] = test system: platelet aggregation; conditions: Rubanyi et al.; cited from earlier work
[11] = test system: endothelial cell monolayers; conditions: Radomski et al.; cited from earlier work
[12] = test system: Leukocyte-endothelial cell adhesive interactions; conditions: postcapillary venules; Kubes et al. 1991; cited from earlier work
[13] = test system: Primary neuronal cell cultures; conditions: as high as 1 mM; cited from earlier work
[14] = Kanner et al.; cited from earlier work
[15] = Saran et al. 1990; cited from earlier work
[16] = test system: lung tissue; conditions: high concentrations in the gas phase; cited from earlier work
[17] = 100 μM with hydrogen peroxide or HX/XO

T1 sequence (P80457 whole entry): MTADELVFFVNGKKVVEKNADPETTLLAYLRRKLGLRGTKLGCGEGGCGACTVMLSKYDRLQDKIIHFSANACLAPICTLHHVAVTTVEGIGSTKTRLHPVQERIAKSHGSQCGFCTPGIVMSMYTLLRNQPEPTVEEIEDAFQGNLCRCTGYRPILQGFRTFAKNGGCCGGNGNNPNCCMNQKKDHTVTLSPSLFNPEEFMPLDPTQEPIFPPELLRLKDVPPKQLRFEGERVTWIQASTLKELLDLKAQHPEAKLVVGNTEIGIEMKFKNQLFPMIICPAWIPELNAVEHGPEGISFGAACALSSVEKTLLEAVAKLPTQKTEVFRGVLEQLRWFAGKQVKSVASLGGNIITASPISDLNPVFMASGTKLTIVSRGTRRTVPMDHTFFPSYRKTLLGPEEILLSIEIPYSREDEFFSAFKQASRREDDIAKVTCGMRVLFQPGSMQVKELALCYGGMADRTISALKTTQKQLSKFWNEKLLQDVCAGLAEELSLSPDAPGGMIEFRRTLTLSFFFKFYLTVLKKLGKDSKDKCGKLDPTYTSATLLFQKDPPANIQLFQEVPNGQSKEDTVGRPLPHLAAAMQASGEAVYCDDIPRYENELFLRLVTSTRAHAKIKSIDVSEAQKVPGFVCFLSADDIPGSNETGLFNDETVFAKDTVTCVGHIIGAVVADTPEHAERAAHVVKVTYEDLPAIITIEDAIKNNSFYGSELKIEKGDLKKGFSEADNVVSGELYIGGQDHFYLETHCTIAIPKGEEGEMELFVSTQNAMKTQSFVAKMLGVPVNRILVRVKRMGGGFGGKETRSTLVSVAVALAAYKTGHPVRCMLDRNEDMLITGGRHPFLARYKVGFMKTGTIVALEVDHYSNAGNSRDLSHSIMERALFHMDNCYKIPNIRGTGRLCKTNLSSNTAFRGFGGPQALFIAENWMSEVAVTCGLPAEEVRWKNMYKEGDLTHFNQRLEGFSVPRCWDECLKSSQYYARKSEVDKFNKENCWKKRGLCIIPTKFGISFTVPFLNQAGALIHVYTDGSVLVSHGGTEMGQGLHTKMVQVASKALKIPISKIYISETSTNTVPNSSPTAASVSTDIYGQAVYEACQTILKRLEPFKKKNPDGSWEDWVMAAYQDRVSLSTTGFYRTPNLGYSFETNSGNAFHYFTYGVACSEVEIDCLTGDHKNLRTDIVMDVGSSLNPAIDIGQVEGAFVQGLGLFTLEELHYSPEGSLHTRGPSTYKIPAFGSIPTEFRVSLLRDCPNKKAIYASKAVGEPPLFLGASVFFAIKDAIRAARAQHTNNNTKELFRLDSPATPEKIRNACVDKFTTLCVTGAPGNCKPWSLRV

## CCN(CC)/[N+]([O-])=N/[O-].[Na+] [DEA/NO]
[1]; 0.1 mM
  protection against HX/XO-induced cell killing: marginal protection
[1]; 1 mM
  protection against HX/XO-induced cell killing: significantly protected against cell killing
[2]; 1 mM, added just prior to hydrogen peroxide, 1 hr exposure
  protection against hydrogen peroxide cytotoxicity: nearly complete protection
[2]; 1 mM, allowed to release NO for 1 hr prior to hydrogen peroxide
  protection against hydrogen peroxide cytotoxicity: only modest protection
[2]; 1 mM, incubated 16 hr in medium prior to hydrogen peroxide
  effect on hydrogen peroxide cytotoxicity: enhanced the cytotoxicity of hydrogen peroxide
[2]; 1 hr hydrogen peroxide followed by 1 hr treatment with 1 mM
  effect of treatment after hydrogen peroxide: did not treat oxygen free radical mediated tissue damage
[3]; 1 mM, preincubated with HX/XO
  inhibition of XO activity, production of superoxide (cytochrome c reduction): did not inhibit the activity of XO
[3]; presence of DEA/NO
  SOD sensitive ferricytochrome c reduction: quenching; also recorded: inhibited
[4]; 1 mM, preincubated with HX/XO
  inhibition of XO activity, uric acid production: did not inhibit the activity of XO
[4]; presence of DEA/NO
  uric acid production (UV 305 nm) / XO substrate turnover: not inhibited; also recorded: nor affect XO substrate turnover
[5]
  rate of decomposition / rate of formation of NO: not altered; also recorded: unaffected
[6]; 100 μM DEA/NO with 50 μM H2O2, 60 min
  [3H] Dopamine Uptake: 2.8 ± 0.11 pmol/well/15 min
[6]; 100 μM DEA/NO with 100 μM H2O2, 60 min
  [3H] Dopamine Uptake: 2.6 ± 0.22 pmol/well/15 min
[6]; 100 μM DEA/NO with 0.04 U/ml HX/XO, 5 min
  [3H] Dopamine Uptake: 2.6 ± 0.15 pmol/well/15 min
[6]; 100 μM DEA/NO with 0.04 U/ml HX/XO, 10 min
  [3H] Dopamine Uptake: 2.3 ± 0.10 pmol/well/15 min
[6]; 100 μM DEA/NO, no addition (None)
  [3H] Dopamine Uptake: 2.7 ± 0.11 pmol/well/15 min
[6]; [17]
  protection of dopamine uptake: complete protection
[6]; hydrogen peroxide in presence of DEA/NO (100 μM, 1 hr), FIG. 3
  retained function (dopamine uptake): ~100%
[7]; 100 μM alone, 1 hr
  morphological changes: failed to cause morphological changes
[7]; [17]
  abnormalities in the neurites and somas: did not demonstrate abnormalities in the neurites and somas

## CC1(C)CCC=[N+]1[O-] [DMPO]
[8]
  reduction of neuronal cell death: more efficiently than the nitric oxide synthase inhibitor L-N-nitroarginine

## O=[N+]([O-])OCC(CO[N+](=O)[O-])O[N+](=O)[O-] [nitroglycerin]
[9]
  NMDA receptor-mediated neuronal damage: reduce NMDA receptor-mediated neuronal damage

## nitric oxide [NO]
[10]
  platelet aggregation: block platelet aggregation
[11]
  platelet adhesion to endothelial cell monolayers: reduce platelet adhesion to endothelial cell monolayers
[12]
  leukocyte-endothelial cell adhesive interactions: inhibited
[13]
  adverse effects in primary neuronal cell cultures: no adverse effects
[14]
  quenching of Fenton-type oxidation: could quench Fenton-type oxidation
[15]
  reaction rate constant for NO and O2: 5.6×10^7 M^-1 S^-1
[16]
  lung tissue damage: damages lung tissue
